Counter-ions that a name gives are not always drawn.
Key:
[1] = target: T1, IDO1 (Homo sapiens, UniProt P14902); assay: Recombinant human IDO1 enzyme inhibition assay; assay type: biochemical; details: for ligand efficiency: LE=1.37*pKi/number of heavy atoms; for mode of inhibition: Lineweaver-Burk graphical analysis
[2] = system: HeLa cells; assay: Cell viability; assay type: cell-based, human; details: up to concentrations of 100 μM
[3] = system: human serum protein; assay: Impact of human serum protein binding on inhibitory activity; assay type: in vitro ADME
[4] = target: T1, IDO1; assay: UV-Vis absorption spectroscopy of inhibitor binding to IDO1; details: 500 μM inhibitor; for effect of inhibitor on CO-bound ferrous IDO1: CO as surrogate for O2; for Soret band of deoxy ferrous IDO1 on inhibitor binding: without inhibitor 427 nm
[5] = system: catalase; assay: Catalase inhibition; assay type: biochemical; details: catalase IC50 relative to IDO1 IC50
catalase, sequence (P00432 2-527): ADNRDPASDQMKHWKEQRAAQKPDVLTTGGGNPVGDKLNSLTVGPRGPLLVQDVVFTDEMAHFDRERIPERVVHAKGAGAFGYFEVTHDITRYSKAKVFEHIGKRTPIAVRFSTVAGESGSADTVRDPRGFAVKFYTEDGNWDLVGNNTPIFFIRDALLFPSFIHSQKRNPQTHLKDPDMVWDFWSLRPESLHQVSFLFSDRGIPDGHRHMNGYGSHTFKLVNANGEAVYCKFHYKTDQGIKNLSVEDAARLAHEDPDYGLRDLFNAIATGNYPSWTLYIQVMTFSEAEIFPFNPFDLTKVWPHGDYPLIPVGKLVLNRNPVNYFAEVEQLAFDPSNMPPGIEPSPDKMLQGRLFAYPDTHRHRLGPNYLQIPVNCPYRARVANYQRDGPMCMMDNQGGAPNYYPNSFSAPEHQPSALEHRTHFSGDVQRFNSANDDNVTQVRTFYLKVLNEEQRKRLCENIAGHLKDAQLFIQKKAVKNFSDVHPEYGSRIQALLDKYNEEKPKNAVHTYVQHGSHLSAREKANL

T1 sequence (P14902 whole entry): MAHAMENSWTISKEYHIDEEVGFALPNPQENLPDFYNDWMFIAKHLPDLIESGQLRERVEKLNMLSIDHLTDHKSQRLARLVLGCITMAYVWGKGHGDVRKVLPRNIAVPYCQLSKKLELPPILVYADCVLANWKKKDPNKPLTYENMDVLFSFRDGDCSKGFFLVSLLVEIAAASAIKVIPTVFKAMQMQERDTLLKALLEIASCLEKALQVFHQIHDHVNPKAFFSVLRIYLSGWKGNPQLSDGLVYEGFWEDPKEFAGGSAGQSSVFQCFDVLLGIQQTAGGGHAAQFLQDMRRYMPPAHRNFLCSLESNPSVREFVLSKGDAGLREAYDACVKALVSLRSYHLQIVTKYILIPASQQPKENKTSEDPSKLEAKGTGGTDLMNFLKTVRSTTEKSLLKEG

IC50 [1] [µM] | Soret band of deoxy ferrous IDO1 on inhibitor binding [4] | SMILES | cell viability (cytotoxicity) [2] | impact of human serum protein binding on inhibitory activity [3] | effect of inhibitor on CO-bound ferrous IDO1 [4] | reversibility of IDO1 inhibition [1] | ligand efficiency [1] | mode of inhibition [1] | Catalase Fold [5] [fold]
20 |  | NOCCc1ccccc1 [Compound 5, O-Phenethylhydroxylamine hydrochloride] |  |  |  |  |  |  | 
 | 419–421 nm | Cl.NOCc1ccc(I)cc1 [Compound 8, 4-(Iodobenzyl)hydroxylamine hydrochloride] | good cell viability | substantial reduction in inhibitory activity | inhibitor binding partially prevents CO binding to the heme iron | reversible | 0.93 | uncompetitive | > 300
 | 419–421 nm | COc1ccc(OC)c(CON)c1.Cl [Compound 40, O-(2,5-Dimethoxybenzyl)hydroxylamine hydrochloride] |  |  | inhibitor binding partially prevents CO binding to the heme iron |  |  |  | 

More lines, now with the values behind:

SMILES | IC50 [1] [µM] | Soret band of deoxy ferrous IDO1 on inhibitor binding [4] | cell viability (cytotoxicity) [2] | impact of human serum protein binding on inhibitory activity [3] | effect of inhibitor on CO-bound ferrous IDO1 [4] | reversibility of IDO1 inhibition [1] | ligand efficiency [1] | mode of inhibition [1] | Catalase Fold [5] [fold]
Cl.NOCc1cccc(Cl)c1 [Compound 9, O-(3-Chlorobenzyl)hydroxylamine hydrochloride] |  |  | good cell viability | relatively unaffected |  | reversible | 0.93 | uncompetitive | > 320
NOCc1ccccc1 [Lead, O-benzylhydroxylamine] |  | 419–421 nm |  |  | inhibitor binding prevents CO binding to the heme iron |  |  |  | 
NNc1ccccc1 [Ph-NH-NH2, phenylhydrazine] |  |  |  |  |  | did not see any signs of irreversible inhibition |  |  | 

Reference: article PMC4724314 (European journal of medicinal chemistry, 2015)
